# Data from patent US20250170090A1, “METHOD FOR PREVENTING OR TREATING DISEASE OR DISORDER ASSOCIATED WITH ANTINEOPLASTIC AGENT” (ONQUALITY PHARMACEUTICALS CHINA LTD., priority 2022, published 2025).
# Key:
# [1] = tested on: hand-foot syndrome caused by macromolecular anti-tumor agents; test: Prevention of hand-foot syndrome caused by macromolecular protein inhibitors in rats (Table 3); assay type: in vivo
# [2] = tested on: hand-foot syndrome caused by anti-tumor agents; test: Treatment of established hand-foot syndrome caused by anti-tumor agents in rats (Table 4); assay type: in vivo
# Summary of the method: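 Rats (about 200 g), 10 per group, given anti-tumor agent by gavage (Cremophor EL:ethanol 1:1, diluted about 3 times with PBS), treated for established hand-foot syndrome with NO-NSAID ointment. Control rate is the blank-group incidence minus the treatment-group incidence.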
# [3] = tested on: chemotherapy-induced hand-foot syndrome; test: Prevention of chemotherapy-induced hand-foot syndrome in rat models (Table 5); assay type: in vivo, SD rats
# Summary of the method: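 SD rats (~200 g, 10 per group) received chemotherapy drugs by gavage at 1 mL/100 g, then NO-NSAID ointment or blank ointment was applied to the paws. Hand-foot syndrome incidence was recorded, and control rate was taken as blank-group incidence minus treated-group incidence.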
# [4] = tested on: human immortalized keratinocytes (HaCaT); test: CCK-8 cell viability: alleviation of proliferative toxicity of anti-tumor agents on HaCaT (Table 8-1); assay type: cell-based; settings: NO-NSAID 100 μM, percentage increase in viable cells vs anti-tumor agent alone
# Summary of the method: (§1)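 Cells seeded at 5,000-10,000 per well and exposed to anti-tumor agent (DMSO solvent) alone or with NO-NSAID (ethanol or water solvent), with solvent controls used for correction. Viability read by CCK-8 after 24-48 hours; proliferative toxicity and its alleviation compared by t test.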
# [5] = tested on: human oral keratinocytes (HOK); test: CCK-8 cell viability: alleviation of proliferative toxicity of anti-tumor agents on HOK (Table 8-2); assay type: cell-based; settings: NO-NSAID 100 μM
# Summary of the method: as §1
# [6] = tested on: gastric epithelial cells (GES-1); test: CCK-8 cell viability: alleviation of proliferative toxicity of anti-tumor agents on GES-1 (Table 8-3); assay type: cell-based, human; settings: NO-NSAID 100 μM
# Summary of the method: as §1
# [7] = tested on: human intestinal epithelial cells (FHs 74 Int); test: CCK-8 cell viability: alleviation of proliferative toxicity of anti-tumor agents on FHs 74 Int (Table 8-4); assay type: cell-based; settings: NO-NSAID 100 μM
# Summary of the method: as §1
smiles,measurement,setting,value
CC(=O)Oc1ccccc1C(=O)Oc1cccc(CO[N+](=O)[O-])c1 [Compound A2],Control rate,"[1]; Bevacizumab, 5-FU combination, tail vein injection once a week, ointment 1% wt, Days 18",33.33%
same,Control rate,"[1]; Bevacizumab, 5-FU combination, tail vein injection once a week, ointment 5% wt, Days 18",50.00%
same,Control rate,"[1]; Ramucirumab combined with paclitaxel, intraperitoneal injection once a week, ointment 1% wt, Days 23",33.33%
same,Control rate,"[1]; Ramucirumab combined with paclitaxel, intraperitoneal injection once a week, ointment 5% wt, Days 23",66.67%
same,Response rate,"[2]; Apatinib 105 mg/kg once every two days, ointment 3% wt, Days 7",33.33%
same,Response rate,"[2]; Cabozantinib 50 mg/kg once every two days, ointment 1% wt, Days 13",14.29%
same,Response rate,"[2]; Erdafitinib 45 mg/kg once every two days, ointment 3% wt, Days 13",28.57%
same,Response rate,"[2]; Fruquintinib 40 mg/kg once every two days, ointment 3% wt, Days 8",50.00%
same,Response rate,"[2]; Lenvatinib 65 mg/kg once a day, ointment 3% wt, Days 9",33.33%
same,Response rate,"[2]; Regorafenib 90 mg/kg once every two days, ointment 1% wt, Days 7",33.33%
same,Response rate,"[2]; Sorafenib 80 mg/kg once every two days, ointment 2.00% wt, Days 5",20.00%
same,Response rate,"[2]; Sunitinib 120 mg/kg once every two days, ointment 3% wt, Days 7",33.33%
same,Control rate,"[3]; Acelarin 130 mg/kg twice a week, ointment 1% wt, Days 30",28.57%
same,Control rate,"[3]; Capecitabine 4000 mg/kg once a day, ointment 2% wt, Days 40",22.22%
same,Control rate,"[3]; Capecitabine 4000 mg/kg once a day, ointment 5% wt, Days 40",28.57%
same,Control rate,"[3]; Capecitabine 4000 mg/kg once a day, ointment 10% wt, Days 40",33.33%
same,Control rate,"[3]; Cytarabine 120 mg/kg twice a day, ointment 2% wt, Days 30",14.29%
same,Control rate,"[3]; Cytarabine 120 mg/kg twice a day, ointment 5% wt, Days 30",42.86%
same,Response rate % (average),[4]; Afatinib (10 μM),20%
same,Response rate % (average),[4]; Cabozantinib (5 μM),36%
same,Response rate % (average),[4]; Dabrafenib (10 μM),21%
same,Response rate % (average),[4]; Everolimus (5 μM),7%
same,Response rate % (average),[4]; Infigratinib (15 μM),16%
same,Response rate % (average),[4]; Lapatinib (5 μM),18%
same,Response rate % (average),[4]; Lenvatinib (10 μM),1%
same,Response rate % (average),[4]; Olmutinib (10 μM),34%
same,Response rate % (average),[4]; Regorafenib (5 μM),26%
same,Response rate % (average),[4]; Selumetinib (5 μM),18%
same,Response rate % (average),[4]; Sorafenib (5 μM),33%
same,Response rate % (average),[4]; Sunitinib (5 μM),31%
same,Response rate % (average),[5]; Afatinib (10 μM),24%
same,Response rate % (average),[5]; Cabozantinib (5 μM),22%
same,Response rate % (average),[5]; Dabrafenib (10 μM),22%
same,Response rate % (average),[5]; Everolimus (5 μM),8%
same,Response rate % (average),[5]; Infigratinib (15 μM),21%
same,Response rate % (average),[5]; Lapatinib (5 μM),−8%
same,Response rate % (average),[5]; Lenvatinib (10 μM),19%
same,Response rate % (average),[5]; Olmutinib (10 μM),32%
same,Response rate % (average),[5]; Regorafenib (5 μM),3%
same,Response rate % (average),[5]; Selumetinib (5 μM),13%
same,Response rate % (average),[5]; Sorafenib (5 μM),31%
same,Response rate % (average),[5]; Sunitinib (5 μM),27%
same,Response rate % (average),[6]; Afatinib (10 μM),3%
same,Response rate % (average),[6]; Cabozantinib (5 μM),27%
same,Response rate % (average),[6]; Dabrafenib (10 μM),25%
same,Response rate % (average),[6]; Everolimus (5 μM),31%
same,Response rate % (average),[6]; Infigratinib (15 μM),39%
same,Response rate % (average),[6]; Lapatinib (5 μM),16%
same,Response rate % (average),[6]; Lenvatinib (10 μM),23%
same,Response rate % (average),[6]; Olmutinib (10 μM),30%
same,Response rate % (average),[6]; Regorafenib (5 μM),18%
same,Response rate % (average),[6]; Selumetinib (5 μM),17%
same,Response rate % (average),[6]; Sorafenib (5 μM),24%
same,Response rate % (average),[6]; Sunitinib (5 μM),18%
same,Response rate % (average),[7]; Afatinib (10 μM),22%
same,Response rate % (average),[7]; Cabozantinib (5 μM),26%
same,Response rate % (average),[7]; Dabrafenib (10 μM),13%
same,Response rate % (average),[7]; Everolimus (5 μM),27%
same,Response rate % (average),[7]; Infigratinib (15 μM),20%
same,Response rate % (average),[7]; Lapatinib (5 μM),20%
same,Response rate % (average),[7]; Lenvatinib (10 μM),26%
same,Response rate % (average),[7]; Olmutinib (10 μM),25%
same,Response rate % (average),[7]; Regorafenib (5 μM),21%
same,Response rate % (average),[7]; Selumetinib (5 μM),27%
same,Response rate % (average),[7]; Sorafenib (5 μM),26%
same,Response rate % (average),[7]; Sunitinib (5 μM),36%
